Consider three compounds from patent publication US20120322824A1, “Cocaine Antagonist/Antidepressant Pharmaceutical Preparations” (priority 2011, published 2012).

For series [1] the following is noted: human subjects, cited from earlier work.
Series [2] deals with mice. Kind of series: open field test, time spent in center. Type of series: in vivo. To be noted: FIG. 3. From the text: Anxiety disorders are often co-morbid with depression and antidepressant drugs are used in the treatment of anxiety. Tests for anxiety in rodents, such as the open field test, make use of the aversion of the animals for exposed locations. Treatment with anxiolytics such as diazepam or fluoxetine increases the amount of time an animal will spend in the center of the open field. We used the Opto-Varimax 4 Activity Analyzer to assess the time animals spent in the center of the open field vs. the periphery after treatment with MI-4. Data were measured as time spent in center (TIC).

Series [3] deals with mice. The series is described as follows: tail suspension test (TST). Type of series: in vivo. From the text: Referring now to FIGS. 5a-d, the tail suspension test (TST) and forced swim test (FST) are well-established, prototypical rodent models of learned helplessness. […] These assays are based on the premise that helpless or “depressed” animals struggle less to escape the mild but inescapable stress of being suspended or being immersed in room temperature water. […] In the TST, standard laboratory tape is used to immobilize an animal by its tail to a fixed support approximately 10.5 inches above a surface. The duration of the test is six minutes during which time animal movement is videotaped and later scored for immobility time (in sec) by a blinded observer. Similarly, in the FST animals are immersed in approximately 10 cm of 25° C. water in a 20 cm×13 cm glass cylinder. Animals were tested for 5 min and behavior was videotaped and scored for immobility time (sec) by a blinded observer.

Series [4] relates to mice. The series is described as follows: conditioned place preference assay (CPP). The series is classed as in vivo. The procedure:
The conditioned place preference assay (CPP) is one test commonly used to show the ability of an antagonist to block rewarding effects in mice. Referring now to FIGS. 1a-b, according to the CPP test mice are placed in an apparatus with two chambers that differ in both visual and tactile cues. Over the course of a one-week training period, a rewarding drug (e.g.—cocaine) is administered once daily exclusively in one chamber so as to allow animals to associate the cues of that chamber with the drug. Sterile water is administered once daily while the animals occupy the opposite chamber to control for non-drug effects. At the conclusion of the training period, animals are allowed free access to both chambers and the time spent in each chamber is measured electronically. It is well known that addictive substances increase the amount of time animals spend in the drug-paired chamber, in the absence of any intervention.
Moreover, additional testing was performed to control for effects of MI-4 on general behavioral activity, an essential consideration when interpreting results from locomotor-based behavioral paradigms such as the CPP test.

The target of series [5] is dopamine (DA) transporter (Homo sapiens, UniProt Q01959). The series is described as follows: in vitro binding affinity, dopamine transporter. To be noted: in vitro studies.
For series [6], the target named is noreinephrine (NE) transporter (Homo sapiens, UniProt P23975). The series is described as follows: in vitro binding affinity, norepinephrine transporter. The following applies: in vitro studies.
For series [7], the target named is serotonin (5-HT) transporter (Homo sapiens, UniProt P31645). The series is described as follows: in vitro binding affinity, serotonin transporter. The following applies: in vitro studies.
The subject of series [8] is mice. Kind of series: locomotor activity (Opto-Varimax 4 Activity Analyzer). Type of series: in vivo. On the procedure: Referring now to FIGS. 2a-d, locomotor activity was assessed in a non-invasive manner using a Opto-Varimax 4 Activity Analyzer (Columbus Instruments, Columbus, Ohio) that measures animal activity in a cage intersected with photocells projecting infrared beams 2.5 cm apart and 2 cm above the floor. After a brief habituation period, animals were treated with either sterile water as vehicle or MI-4 and activity was measured for 20 min.

The test system of series [9] is rodents. The following applies: doses less than 100 mg/kg, i.p.; cited from earlier work.
[10] abbreviates: intravenous administration for up to 72 hours.

Read-outs that look alike come from different tables or passages of the source.

serotonin (5-HT) transporter, sequence (P31645 whole entry): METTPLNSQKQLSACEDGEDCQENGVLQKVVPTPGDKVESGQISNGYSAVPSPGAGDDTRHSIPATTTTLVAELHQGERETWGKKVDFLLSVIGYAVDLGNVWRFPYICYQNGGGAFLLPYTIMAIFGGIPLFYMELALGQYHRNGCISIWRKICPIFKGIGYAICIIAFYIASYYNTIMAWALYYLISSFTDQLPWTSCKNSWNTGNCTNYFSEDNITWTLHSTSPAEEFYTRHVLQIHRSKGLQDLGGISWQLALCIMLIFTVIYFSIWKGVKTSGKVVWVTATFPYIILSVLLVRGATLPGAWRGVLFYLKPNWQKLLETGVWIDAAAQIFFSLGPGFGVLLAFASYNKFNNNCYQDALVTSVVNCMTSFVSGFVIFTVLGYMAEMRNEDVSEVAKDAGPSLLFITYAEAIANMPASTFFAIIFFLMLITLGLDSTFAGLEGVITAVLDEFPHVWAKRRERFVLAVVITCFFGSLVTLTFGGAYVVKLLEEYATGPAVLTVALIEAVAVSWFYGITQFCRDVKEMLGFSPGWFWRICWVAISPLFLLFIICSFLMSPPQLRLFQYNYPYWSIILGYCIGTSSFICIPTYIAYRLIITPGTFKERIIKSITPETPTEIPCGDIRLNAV
noreinephrine (NE) transporter, sequence (P23975 whole entry): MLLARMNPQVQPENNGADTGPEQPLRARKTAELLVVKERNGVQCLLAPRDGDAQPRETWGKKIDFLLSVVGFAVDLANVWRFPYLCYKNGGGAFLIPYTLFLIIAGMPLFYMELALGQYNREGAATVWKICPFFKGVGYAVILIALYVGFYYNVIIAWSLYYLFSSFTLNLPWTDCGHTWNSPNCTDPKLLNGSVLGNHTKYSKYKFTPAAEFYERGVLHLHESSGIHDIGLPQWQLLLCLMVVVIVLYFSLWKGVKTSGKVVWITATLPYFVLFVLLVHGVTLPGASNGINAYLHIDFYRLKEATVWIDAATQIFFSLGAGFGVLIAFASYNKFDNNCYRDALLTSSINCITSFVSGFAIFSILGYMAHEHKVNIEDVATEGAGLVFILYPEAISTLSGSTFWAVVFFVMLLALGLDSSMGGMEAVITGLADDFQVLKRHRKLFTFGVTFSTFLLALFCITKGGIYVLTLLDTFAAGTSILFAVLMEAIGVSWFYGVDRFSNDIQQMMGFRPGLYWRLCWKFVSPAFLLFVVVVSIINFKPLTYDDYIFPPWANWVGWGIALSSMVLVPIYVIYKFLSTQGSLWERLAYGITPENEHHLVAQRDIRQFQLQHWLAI
dopamine (DA) transporter, sequence (Q01959 whole entry): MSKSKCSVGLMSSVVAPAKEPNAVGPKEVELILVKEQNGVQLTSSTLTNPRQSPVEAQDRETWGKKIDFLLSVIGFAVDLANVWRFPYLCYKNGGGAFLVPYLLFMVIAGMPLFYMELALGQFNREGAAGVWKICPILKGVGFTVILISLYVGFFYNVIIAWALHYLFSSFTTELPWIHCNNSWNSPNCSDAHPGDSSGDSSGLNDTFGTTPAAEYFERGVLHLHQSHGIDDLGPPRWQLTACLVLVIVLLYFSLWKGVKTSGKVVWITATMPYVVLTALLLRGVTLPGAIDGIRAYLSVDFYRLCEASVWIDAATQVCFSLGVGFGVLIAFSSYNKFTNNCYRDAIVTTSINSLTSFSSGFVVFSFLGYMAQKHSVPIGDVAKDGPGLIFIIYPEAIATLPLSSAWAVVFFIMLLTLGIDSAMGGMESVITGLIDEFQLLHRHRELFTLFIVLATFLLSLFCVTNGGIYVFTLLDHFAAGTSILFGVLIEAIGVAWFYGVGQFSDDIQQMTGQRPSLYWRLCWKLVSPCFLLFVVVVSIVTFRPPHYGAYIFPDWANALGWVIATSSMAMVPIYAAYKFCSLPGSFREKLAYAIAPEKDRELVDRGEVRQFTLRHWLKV

As for `C[C@@H]([C@@H](O)c1ccc(O)cc1)N1CCC(O)(c2ccccc2)CC1` [traxoprodil], in [1] (extensive metabolizers (EM)), the oral bioavailability is listed as 23-62%. In addition, in series [1] (setting [10]), the adverse effects result was “no observable adverse effects”, the “sustained levels in the cerebral spinal fluid” value is > 200 ng/mL and the “sustained levels in the plasma” value was > 200 ng/mL. In addition, the oral bioavailability result in series [1] (poor metabolizers (PM)) is on record as “approx. 80%”.

`C[C@@H](CN1CCC(Cc2ccccc2)CC1)[C@@H](O)c1ccc(O)cc1` (relative stereo) [MI-4, ([R-(R*,S*)]-α-(4-Hydroxyphenyl)-β-methyl-4-(phenylmethyl)-1-piperidinepropanol]: the “time in center in the open field” value in series [2] (10 mg/kg) is “decreased time in center”. Moreover, in series [2], the “time spent in center (TIC) in the open field” value was “did not significantly increase”. In addition, in series [3] (six minute test, FIG. 5a, comparable in effect to fluovoxamine and desipramine), the “immobility time in the TST” value is listed as “dose-dependent reduction in immobility time”. In series [4] (MI-4 10/mg/kg i.p. co-administered with cocaine 10 mg/kg i.p., FIG. 1b), the “effect of cocaine on time in drug-paired chamber when co-administered” value is recorded as “reduced by half”. The “rewarding effects when administered alone (time spent in the MI-4-paired chamber)” value in series [4] (administered alone at the same dose (10/mg/kg, i.p.)) is “did not exhibit rewarding effects”. Further, the “binding affinity for the dopamine (DA) transporter” value in [5] is “physiologically-relevant binding affinity”. Besides, the “binding affinity for the noreinephrine (NE) transporter” value in series [6] was “physiologically-relevant binding affinity”. Also, in series [7], the “binding affinity for the serotonin (5-HT) transporter” value is on record as “physiologically-relevant binding affinity”. For the same compound, the distance traveled entry in series [8] (MI-4 vs sterile water vehicle, 20 min, FIG. 2a) is given as “only minor effects”. The ambulatory time entry in [8] (MI-4 vs sterile water vehicle, 20 min, FIG. 2b) is given as “only minor effects”. In addition, the “stereotopy time (grooming behavior)” value in [8] (MI-4 vs sterile water vehicle, 20 min, FIG. 2c) was “did not significantly alter”. Further, the resting time result in series [8] (MI-4 vs sterile water vehicle, 20 min, FIG. 2d) is reported as “only minor effects”. For the same compound, the “adverse effects (tolerability)” value in [9] is on record as “no observable adverse effects”.

In the case of `Oc1ccc(C2=CCN(C[C@H](O)COCc3ccccc3Cl)CC2)cc1` [MI-17, reference compound], the “immobility times in the TST” value is “dose-dependently increased” in series [3] (2% DMSO vehicle, FIG. 5c) and “dose-dependently increased” in [3] (55% DMSO vehicle in the oxalate form, FIG. 5d). Moreover, in series [8] (beginning at 3 mg/kg but mostly at 10 mg/kg, FIG. 4a), the distance traveled result is reported as “dramatically decreased”. Further, the resting time entry in series [8] (beginning at 3 mg/kg but mostly at 10 mg/kg, FIG. 4b) is “dramatically increasing”. The stereotopy time entry in [8] (beginning at 3 mg/kg but mostly at 10 mg/kg, FIG. 4c) is on record as “dramatically decreased”. Besides, in series [8] (beginning at 3 mg/kg but mostly at 10 mg/kg, FIG. 4d), the ambulatory time result is listed as “dramatically decreased”.
